pEC50: −log10 of the molar value. Calls of active or inactive are those of the source. The rule behind the calls is not given here.

For assay [1], the system named is Mus musculus. Put plainly: Antinociceptive activity in sc dosed mouse by tail flick method. The assay is classed as functional.
The subject of assay [2] is Mus musculus. Put plainly: Antinociceptive activity in sc dosed mouse assessed as inhibition of morphin response by tail flick assay. The assay is classed as functional.
Assay [3] is described as follows: Displacement of [3H]etorphine from opioid receptor in rat cerebrum.
For assay [4], the system named is Mus musculus. Put plainly: Antinociceptive activity in sc dosed mouse by hot plate method. Type of assay: functional.
The test system of assay [5] is Mus musculus. Put plainly: Antinociceptive activity in sc dosed mouse by phenylquinone antiwrithing assay. Type of assay: functional.
In a further assay the target is Mu-type opioid receptor (Mus musculus, UniProt P42866). Nature of the assay: Agonist activity at mu opioid receptor in Swiss mouse vas deferens assessed as inhibition of electrically-stimulated twitch. The assay is classed as functional, tissue-based.
The nature of assay [6]: Displacement of 3.0 nM [3H]etorphine from opioid receptor in rat cerebrum.

Mu-type opioid receptor, sequence (P42866 whole entry): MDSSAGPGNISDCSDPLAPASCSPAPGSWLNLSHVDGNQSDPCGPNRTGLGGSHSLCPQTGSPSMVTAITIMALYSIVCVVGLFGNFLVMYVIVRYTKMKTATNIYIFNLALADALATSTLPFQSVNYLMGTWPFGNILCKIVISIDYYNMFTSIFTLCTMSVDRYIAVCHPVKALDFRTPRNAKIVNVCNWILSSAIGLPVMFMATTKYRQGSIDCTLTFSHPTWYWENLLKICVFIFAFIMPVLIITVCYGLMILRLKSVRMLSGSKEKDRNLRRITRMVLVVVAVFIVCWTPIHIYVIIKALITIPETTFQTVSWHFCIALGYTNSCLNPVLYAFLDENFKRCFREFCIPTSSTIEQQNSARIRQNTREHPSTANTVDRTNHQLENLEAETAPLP

As to `C[C@H]1C2Cc3ccc(O)cc3[C@@]1(C)CCN2CC(=O)O`, the result in the assay on Mus musculus [1], in the assay with Mus musculus [2], in the assay with Mus musculus [4] and in the assay on Mus musculus [5] was inactive. Besides, the values for the pEC50 (in assay [3]; on Mu-type opioid receptor) were less than 5.22 and 5.01, respectively.
`C=CCN1CC[C@]23c4c5ccc(O)c4O[C@H]2[C@@H](O)C=C[C@H]3[C@H]1C5` [NALORPHINE]: in the assay with Mus musculus [1], the result was inactive. Moreover, the ED50 came to 2.6 mg/kg with Mus musculus [2] and 0.6 mg/kg in the assay with Mus musculus [5]. This compound also gave a pEC50 in assay [3] of 7.70.
Take `CN1CC[C@]23c4c5ccc(O)c4O[C@H]2[C@@H](O)C=C[C@H]3[C@H]1C5` [MORPHINE]: the ED50 in the assay with Mus musculus [2] was 2.6 mg/kg.
As for `O=C1CC[C@@]2(O)[C@H]3Cc4ccc(O)c5c4[C@@]2(CCN3CC2CC2)[C@H]1O5` [NALTREXONE], the outcome in the assay with Mus musculus [1], in the assay with Mus musculus [4] and with Mus musculus [5] was inactive. In addition, the ED50 with Mus musculus [2] stood at 0.007 mg/kg. Besides, the pEC50 in assay [3] is 9.20; in assay [6], 8.70.
As for `CCOC(=O)CCN1CC[C@]2(C)c3cc(O)ccc3CC1[C@@H]2C`, the outcome in the assay on Mus musculus [1], with Mus musculus [2], with Mus musculus [4] and with Mus musculus [5] was inactive.
In turn, `COc1ccc2c3c1O[C@H]1[C@@H](O)C=C[C@H]4[C@@H](C2)N(C)CC[C@@]341` [CODEINE] had a pEC50 in assay [6] of 4.46.
On to `C[C@H]1[C@@H]2Cc3ccc(O)cc3[C@]1(C)CCN2C` [METAZOCINE], for which the figures for the ED50 with Mus musculus [1], in the assay on Mus musculus [4] and with Mus musculus [5] were 0.81 mg/kg, 0.62 mg/kg and 0.3 mg/kg, respectively. For the same compound, the outcome with Mus musculus [2] was inactive.
With `C=CCN1CC[C@]23c4c5ccc(O)c4O[C@H]2C(=O)CC[C@@]3(O)[C@H]1C5` [NALOXONE], the outcome in the assay on Mus musculus [1], with Mus musculus [4] and with Mus musculus [5] was inactive. Moreover, in the assay with Mus musculus [2], the 50% effective dose (ED50) was determined as 0.03 mg/kg. The pEC50 in assay [3] is 8.20; in assay [6] it was 8.04.
In the case of `CCOC(=O)CN1CC[C@]2(C)c3cc(O)ccc3CC1[C@@H]2C`, the result with Mus musculus [1], in the assay on Mus musculus [2], with Mus musculus [4] and with Mus musculus [5] was inactive. The compound also showed a pEC50 in assay [3] of 5.68.
Turning to `CCOC(=O)CCCN1CC[C@]2(C)c3cc(O)ccc3CC1[C@@H]2C`, the result in the assay with Mus musculus [1], in the assay on Mus musculus [2] and in the assay with Mus musculus [4] was inactive. Besides, the pEC50 in assay [3] is 5.99; at Mu-type opioid receptor, 4.75. The ED50 in the assay on Mus musculus [5] was 7.1 mg/kg.
In the case of `C[C@H]1C2Cc3ccc(O)cc3[C@@]1(C)CCN2CCC(=O)O`, the result with Mus musculus [1], with Mus musculus [2] and with Mus musculus [4] was inactive. In addition, the pEC50 in assay [3] was less than 5.22. Further, it took a dose of 11.4 mg/kg to reach the 50% effect level in the assay on Mus musculus [5] (ED50).
Take `C[C@H]1C2Cc3ccc(O)cc3[C@@]1(C)CCN2CCCC(=O)O`: the outcome with Mus musculus [1], in the assay with Mus musculus [2] and with Mus musculus [4] was inactive. The pEC50 in assay [3] was less than 5.22. The ED50 in the assay with Mus musculus [5] worked out at 1.4 mg/kg.

The values above are taken from ChEMBL document CHEMBL1143143, “The influence of esters and carboxylic acids as the N-substituent of opioids. Part 1: Benzomorphans” (Bioorg Med Chem, 2008).
